Measured values: patent publication US20230028880A1, “CD38-BINDING AGENTS AND USES THEREOF” (Biohaven Therapeutics Ltd., priority 2019, published 2023)
Values joined by “and” are separate entries in the source; they are usually repeats but may differ in a detail not shown here. Equal entries are not always repeated. “Also recorded” adds a separate entry of the source.

Experiments:
Assay type in all cases: cell-based
[1] = tested on: NK cells (CIML and non-CIML); test: CIML NK cell fratricide assay
Protocol: PBMC isolation: Leukopheresis product from a donor with body mass index (BMI) between 19-25, under 50 years old, not on immuno-suppressive drugs for at least 2 weeks with an estimated PBMC cell count of >10^10 was obtained from Key Biologics (subject ID 20982200) and transported at ambient temperature. Leukopheresis bag was wiped down with 70% EtOH, a small slit was made and contents were pipetted off into tubes. Leukopak contents were diluted 1:1 with PBS without Ca++/Mg++ and 20 ml of this mixture was layered on top of 25 mL of Ficoll. Tubes were then centrifuged at 400 g for 30 minutes without brakes. PBMCs were harvested from the interface into separate tubes, and tubes were filled to 50 mL with PBS. Cells were centrifuged for 10 min at 120 g to get rid of platelets. Supernatant was poured off and cells were re-suspended in RPMI 10% FBS at a concentration of 7-10×10^6 cells/ml. Cells were cultured overnight at 37 C in a 5% CO2 atmosphere until NK cell isolation.
NK cell isolation: PBMC were centrifuged at 400 g for 10 min and re-suspended in EasySep buffer. NK cells were isolated using NK cell isolation kits from […] Technologies according to kit's manufacturers' instructions. NK cell purity and phenotype was assessed by trypan Blue and flow cytometry using the following antibody cocktail: anti-CD56PE, CD3 APC, and viability was determined using staining with Trypan Blue exclusion dye, and by flow cytometry using Near Infra-Red Fixable viability dye (Thermo Fisher).
CIML NK cell generation: Isolated NK cells were re-suspended at 2×10^6 cells/ml in XVIVO 10% Human Serum and the following concentrations IL-15 (50 ng/ml), IL-12 (10 ng/ml), IL-18 (50 ng/ml) for 12 to 18 hrs. Cells were harvested and tested for purity and viability by Trypan Blue staining and by Flow Cytometry using Near Infra-Red Fixable viability dye (Thermo Fisher), CD3 APC (Biolegend) and CD56 PE (Biolegend).
The stock was then serially diluted in 100% DMSO to achieve 1000× concentrations to be used in the experiment. The 100% DMSO compound stock was then added to a tube and media was added to a volume of 1000 ul per 1 ul of compound and vortexed for 1 minute to ensure a homogenous mixture.
Similarly, NK cell pellets were re-suspended in Daratumumab control antibody solutions (a range of 3 ug/ml to 0.01 ug/ml in PBS 5% HSA). Resulting NK cell suspensions were aliquoted at 55 ul/well of a 96 wellv-bottom plate and were incubated for 2 hrs at 37° C. in a 5% CO2 atmosphere.

Daudi cells = test: Ternary binding assay: recruitment of PE-labeled human IgG1k to Daudi cells (flow cytometry, MFI); settings: duplicate columns
Method in brief: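 Daudi cells, 100,000 per well, were suspended in flow buffer (1% BSA, 0.5 mM EDTA, PBS) containing 11.1 ug/mL PE-labeled human IgG1k and incubated with ½-log compound dilutions (8–12 concentrations) for 30 min at 37 °C. After two washes with 0.5% Tween 20 buffer, mean fluorescence was read by flow cytometry and fitted with a four-parameter variable-slope model.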

SUDHL-4 cells = test: CIML NK cell SUDHL-4 cell ADCC assay
Protocol: CIML NK cell SUDHL-4 cell ADCC assay: SUDHL-4 cells were labelled with CFSE and re-suspended in XVIVO15 media containing 20% Human serum. Cells were aliquoted at 10,000 cells/well, 18 ul/well of 96 well V-bottom plates. NK cells (in PBS 5% HSA) were added at a 9:1 ratio (90,000 NK cell per well) in an equal volume (18 ul per well). Co-cultures were incubated overnight at 37° C. in a 5% CO2 atmosphere. Next day, cells were washed, and stained with the following reagents: Near Infra-Red Fixable viability dye (Thermo Fisher), CD3 FITC (Biolegend) and CD56 PE (Biolegend). Percentages of Dead SUDHL-4 cells were calculated by gating on CFSE+ cells that are also positive for Near Infrared Live Dead dye.
Baseline activity was assessed by using NK cells that have not been stimulated with cytokine cocktail (non-CIML NK cells). FIG. 6 represents frequencies of dead SUDHL-4 cells in NK-SUDHL-4 cell co-cultures after 18 hours of incubation.

## CCCCC[C@@H]1NC(=O)[C@H](CCCNC(=N)N)NC(=O)[C@H](C)NC(=O)CSC[C@@H](C(=O)NCCOCCOCCOCCOCCOCCOCCn2nnc3c2CCC2C(CC3)C2COC(=O)N2CCC(C(=O)NCC(=O)N[C@H](CCC(=O)N[C@H](CCC(=O)N[C@H](CCC(=O)O)C(=O)N[C@H](CCC(=O)N[C@H](CCC(=O)NCC(=O)NCC(=O)N[C@@H](CC(=O)O)C(=O)N[C@H]3CSSC[C@@H](C(=O)N[C@H](C(=O)O)[C@@H](C)O)NC(=O)[C@H](Cc4c[nH]c5ccccc45)NC(=O)[C@H](C(C)C)NC(=O)[C@H](CC(C)C)NC(=O)[C@H](CCC(=O)O)NC(=O)CNC(=O)[C@H](CC(C)C)NC(=O)[C@H](Cc4c[nH]cn4)NC(=O)[C@H](Cc4c[nH]c5ccccc45)NC(=O)[C@H](C)NC3=O)C(=O)O)C(=O)O)C(=O)O)C(=O)O)CC2)NC(=O)[C@H](CC(=O)O)NC(=O)[C@H](CCCCC)NC(=O)[C@H](Cc2ccc(-c3ccccc3)cc2)NC(=O)[C@H](CC(C)C)NC(=O)[C@H](C(C)C)NC(=O)CNC(=O)[C@H](CC(=O)O)NC(=O)[C@H](Cc2c[nH]cn2)NC(=O)[C@H](Cc2ccc(O)cc2)NC1=O (some centres unmarked) [I-17]
[1]; 2 hr incubation, up to the highest doses (FIG. 5)
  NK cell fratricide / toxicity: no apparent NK cell fratricide was detected; also recorded: low toxicity
[1]; CIML NK cells, 2 hours post-incubation, daratumumab 3 ug/ml or 20.1 nM, I-17 +/-IVIG
  increase in the percentage of dead NK cells: no increase
[1]; non-CIML NK cells, 2 h, I-17 25 uM with IVIG 500 ug/ml
  increase in dead NK cells (I-17 IvIG vs DMSO IVIG control): 0.93%
[1]; non-CIML NK cells, 2 h, I-17 at 25 uM vs DMSO control
  increase in dead NK cells over DMSO treated control: 1.7%
Daudi cells; compound 0.03 nM
  MFI, recruitment of PE-labeled human IgG1k to Daudi cells: 2516 and 2391
Daudi cells; compound 0.1 nM
  MFI, recruitment of PE-labeled human IgG1k to Daudi cells: 2322 and 2622
Daudi cells; compound 0.3 nM
  MFI, recruitment of PE-labeled human IgG1k to Daudi cells: 2387 and 2457
Daudi cells; compound 1 nM
  MFI, recruitment of PE-labeled human IgG1k to Daudi cells: 3272 and 2451
Daudi cells; compound 3 nM
  MFI, recruitment of PE-labeled human IgG1k to Daudi cells: 2516 and 2680
Daudi cells; compound 10 nM
  MFI, recruitment of PE-labeled human IgG1k to Daudi cells: 7119 and 4086
Daudi cells; compound 30 nM
  MFI, recruitment of PE-labeled human IgG1k to Daudi cells: 3869 and 5244
Daudi cells; compound 100 nM
  MFI, recruitment of PE-labeled human IgG1k to Daudi cells: 7575 and 6333
Daudi cells; compound 300 nM
  MFI, recruitment of PE-labeled human IgG1k to Daudi cells: 7514 and 8562
Daudi cells; compound 1000 nM
  MFI, recruitment of PE-labeled human IgG1k to Daudi cells: 10015 and 9697
Daudi cells; compound 3000 nM
  MFI, recruitment of PE-labeled human IgG1k to Daudi cells: 9069 and 9922
SUDHL-4 cells; CIML NK cells in combination with I-17, SUDHL-4 cells, 18 hours
  increase in killing over background (DMSO-treated control): 66%
SUDHL-4 cells; FIG. 6
  killing of SUDHL-4 cells in NK-SUDHL-4 co-cultures: can effectively kill cancer cells
